# Laboratory results published in patent US9261498B2, “Biomarker for sensitivity to mTOR inhibitor therapy in kidney cancer” (The Regents of the University of California, priority 2005, dated 2016).
# “Also recorded” adds a separate entry of the source.
# Tests used:
# [1] = system: VEGF; experiment: VEGF immunohistochemistry on xenograft tumors; type: in vivo, SCID mice; details: CCI-779 treated vs vehicle
# Description: FIGS. 2A-2C. Effects of VHL knockdown on angiogenesis. (a) Microvessel density was quantified by CD-31 immunolabeling (arrows) in the xenograft tumors, and difference between CCI-779 treated (+) and vehicle (−) treated mice quantified (n=6 in each group). P<0.0033 for microvessel density counts in VHL shRNA compared to vector only (see blue bars). (b) Similar number of cells were plated and maintained in 10% serum rich media, in the presence (+) or absence (−) of 10 nM CCI-779. Thirty-six hours later, conditioned media was analyzed by anti-VEGF ELISA and cell extracts prepared for protein quantification. VEGF values were normalized to total cellular protein. Error bars equal one standard deviation (n=3). (c) Immunohistochemistry for VEGF protein was performed on paraffin embedded tumor xenografts from vehicle and CCI-779 treated mice.
# Xenograft tumor samples were fixed in 10% buffered formalin and embedded in paraffin. […] Microvessel density was quantified by as described previously (Weidner, N. et al. J Natl Cancer Inst 84, 1875-87 (1992)). Briefly, microvessel density was determined by light microscopy in areas of the xenograft tumor containing highest numbers of capillaries and small venules (microvessels) per area (i.e. neovascular “hotspots”) by scanning the tumor sections at low power (40× and 100×). […]
# [2] = system: VEGF; experiment: VEGF ELISA of conditioned media; type: cell-based, human; details: VHL knockdown cells, 10 nM CCI-779, 36 hours, normalized to total cellular protein
# Description: FIGS. 2A-2C. Effects of VHL knockdown on angiogenesis. (a) Microvessel density was quantified by CD-31 immunolabeling (arrows) in the xenograft tumors, and difference between CCI-779 treated (+) and vehicle (−) treated mice quantified (n=6 in each group). P<0.0033 for microvessel density counts in VHL shRNA compared to vector only (see blue bars). (b) Similar number of cells were plated and maintained in 10% serum rich media, in the presence (+) or absence (−) of 10 nM CCI-779. Thirty-six hours later, conditioned media was analyzed by anti-VEGF ELISA and cell extracts prepared for protein quantification. VEGF values were normalized to total cellular protein. Error bars equal one standard deviation (n=3). […] Bound antibody was detected using enhanced chemiluminescence (ECL, Amersham). For VEGF ELISA quantification, cells were plated in 6 well plates (1×10^5 per well). […] Thirty-six hours later, VEGF ELISA (R&D Systems) was performed according to the manufacturer's instructions, using a Fisher Plate reader. […] Bound antibody was detected using enhanced chemiluminescence (ECL, Amersham). For VEGF ELISA quantification, cells were plated in 6 well plates (1×10^5 per well). […] Thirty-six hours later, VEGF ELISA (R&D Systems) was performed according to the manufacturer's instructions, using a Fisher Plate reader. […]
smiles,measurement,setting,value
CO[C@H]1C[C@@H]2CC[C@@H](C)[C@@](O)(O2)C(=O)C(=O)N2CCCC[C@H]2C(=O)O[C@H]([C@H](C)C[C@@H]2CC[C@@H](OC(=O)C(C)(CO)CO)[C@H](OC)C2)CC(=O)[C@H](C)/C=C(\C)[C@@H](O)[C@@H](OC)C(=O)[C@H](C)C[C@H](C)/C=C/C=C/C=C/1C [CCI-779],VEGF protein expression in VHL knockdown xenografts,[1],reversed; also recorded: reduced
same,reduction of secreted VEGF levels,[2],2 fold
